Measured values published in patent publication US4839350A, “Cephalosporin compounds and the production thereof” (Meiji Seika Kaisha, Ltd., priority 1984, dated 1989).

Test: Recovery in urine after oral administration to mice (paper-disc assay)
Format: in vivo, mice of ICR-strain (male)
Details: 0.5 mg per mouse, suspension in 0.2% CMC, urine to 4 hours, molar % as free carboxylic acid form, average of three mice, E. coli K-12 8236 bioassay, read-out: Rate of recovery of the test compound in urine
Text: The new cephalosporin compound of this invention as orally administered is easily absorbed through the intestines by a living animal and maintains its antibacterial activity to a substantial extent in the body of the animal until it is excreted in the urine of the animal, and this may be observed by determining the remaining amount of the cephalosporin compound of this invention which can be recovered in the urine without receiving a substantial degradation of the compound in vivo. Some tests were made to evaluate the amount of the cephalosporin compound of this invention which can be recovered as the antibacterially active compound from the urine after it was orally given to mice.
To mice of ICR-strain (male, 4-weeks-aged, three in each group) was orally administered the compound under test identified below, at a dosage of the compound of 0.5 mg per mouse. The compound under test was given as a suspension of the test compound in a solution of 0.2% carboxymethylcellulose (CMC) in water. By the end of 4 hours after the administration of the test compound, all the amounts of the urine excreted by the treated mice were collected together, and the total quantity of the cephalosporin compound of this invention (as the free carboxylic acid form) in the urine was determined according to a paper-disc assay method using Escherichia coli K-12 8236 as the assaying strain. […]

Row | SMILES | dose excreted at 4 h [%]
1 | CO/N=C(\C(=O)NC1C(=O)N2C(C(=O)OCOC(=O)C(C)(C)C)=C(/C=C\c3scnc3Cl)CSC12)c1csc(N)n1 (stereo not drawn) [Example 22, 7-[2-methoxyimino-2-(2-aminothiazol-4-yl)acetamido]-3-[2-(4-chlorothiazol-5-yl)vinyl]-3-cephem-4-carboxylic acid (syn-isomer, cis-isomer) pivaloyloxymethyl ester] | 24
2 | CO/N=C(\C(=O)NC1C(=O)N2C(C(=O)OCOC(=O)C(C)(C)C)=C(/C=C\c3cncs3)CSC12)c1csc(N)n1 (stereo not drawn) [Example 38, 7-[2-methoxyimino-2-(2-aminothiazol-4-yl)acetamido]-3-[2-(thiazol-5-yl)vinyl]-3-cephem-4-carboxylic acid (syn-isomer, cis-isomer) pivaloyloxymethyl ester] | 20
